Reference: EPA's ToxRefDB 2

Legend:
mouse [1] = settings: Combined chronic toxicity/carcinogenicity, b6c3f1, Oral, Water, dose end: 52 week, group: systemic
rat [2] = settings: Subchronic oral toxicity in rodents, sprague dawley, Water, dose end: 90 day, group: systemic
dog [3] = settings: Subchronic oral toxicity in nonrodent, beagle, Feed, dose end: 228 day, group: systemic, systemic / pathology microscopic / kidney / eosinophilic focus + systemic / pathology microscopic / kidney / pigmentation + systemic / …
dog [4] = settings: Chronic toxicity; beagle; Oral; Feed; dose end: 52 week; group: systemic; systemic / clinical chemistry / creatinine / creatinine + systemic / clinical chemistry / urea nitrogen / urea nitrogen
rat [5] = settings: Multigenerational reproductive toxicity study, sprague dawley, Oral, Feed, dose end: 2 generation
rat [6] = settings: Subchronic oral toxicity in rodents, fischer, Feed, dose end: 13 week, group: systemic
dog [7] = settings: Subchronic oral toxicity in nonrodent, beagle, Feed, dose end: 184 day, group: systemic, systemic / clinical chemistry / [other] / [other] + systemic / clinical chemistry / aspartate aminotransferase (ast/sgot) / aspartate …
rat [8] = settings: Prenatal developmental toxicity study, sprague dawley, Oral, Gavage/Intubation, dose end: 15 GD
mouse [9] = settings: Combined chronic toxicity/carcinogenicity, other, Oral, Feed, dose end: 95 week, group: systemic
[10] = systemic / organ weight / liver / absolute + systemic / organ weight / liver / relative to body weight + systemic / pathology microscopic / …
[11] = systemic / pathology microscopic / liver / adenoma + systemic / pathology microscopic / liver / hepatocellular carcinoma + systemic / organ …
[12] = systemic / in life observation / water consumption / water consumption + systemic / organ weight / kidney / relative to body weight + …
[13] = systemic / organ weight / spleen / absolute + systemic / pathology microscopic / liver / hypertrophy
[14] = group: offspring, developmental / developmental malformation / bone / exencephaly + developmental / developmental malformation / eye / ablepharia
[15] = group: offspring, developmental / developmental malformation / bone / exencephaly + developmental / developmental malformation / eye / ablepharia + …
[16] = group: parental, systemic / pathology microscopic / kidney / degeneration
[17] = group: parental, systemic / pathology microscopic / kidney / degeneration + systemic / in life observation / body weight / body weight + systemic / in life …
[18] = group: reproductive, reproductive / offspring survival early / litter size / litter size
[19] = systemic / pathology microscopic / kidney / degeneration + systemic / hematology / platelet / platelet + systemic / in life observation / …
[20] = group: developmental, developmental / developmental malformation / bone / brachycephaly + developmental / developmental malformation / bone / delayed ossification…
[21] = group: maternal, systemic / in life observation / clinical signs / [other] + systemic / in life observation / clinical signs / alopecia + systemic / in life …

O=C([O-])C(Cl)(Cl)Cl.[Na+] [Sodium trichloroacetate]
LOAEL (mouse [1]; [10]): > 267 mg/kg/day | NOAEL (mouse [1]; [10]): ≥ 267 mg/kg/day | LEL (mouse [1]; [11]): 133 mg/kg/day | NEL (mouse [1]; [11]): < 133 mg/kg/day | LOAEL (rat [2]; [12]): > 355 mg/kg/day | NOAEL (rat [2]; [12]): ≥ 355 mg/kg/day | LEL (rat [2]; [13]): 4.1 mg/kg/day | NEL (rat [2]; [13]): < 4.1 mg/kg/day

O=C(O)COc1nc(Cl)c(Cl)cc1Cl [Triclopyr]
LEL (dog [3]): 5 mg/kg/day | LOAEL (dog [3]): 5 mg/kg/day | NEL (dog [3]): < 5 mg/kg/day | NOAEL (dog [3]): < 5 mg/kg/day | LEL (dog [4]): 2.5 mg/kg/day | LOAEL (dog [4]): 2.5 mg/kg/day | NEL (dog [4]): 0.5 mg/kg/day | NOAEL (dog [4]): 0.5 mg/kg/day | LEL (rat [5]; [14]): 25 mg/kg/day | LOAEL (rat [5]; [14]): 25 mg/kg/day | NEL (rat [5]; [15]): 2 mg/kg/day | NOAEL (rat [5]; [15]): 2 mg/kg/day | LEL (rat [5]; [16]): 25 mg/kg/day | LOAEL (rat [5]; [16]): 25 mg/kg/day | NEL (rat [5]; [17]): 2 mg/kg/day | NOAEL (rat [5]; [17]): 2 mg/kg/day | LEL (rat [5]; [18]): 250 mg/kg/day | LOAEL (rat [5]; [18]): > 250 mg/kg/day | NEL (rat [5]; [18]): 25 mg/kg/day | NOAEL (rat [5]; [18]): ≥ 250 mg/kg/day | LOAEL (rat [6]; systemic / pathology microscopic / kidney / degeneration): 20 mg/kg/day | NEL (rat [6]; [19]): 5 mg/kg/day | NOAEL (rat [6]; [19]): 5 mg/kg/day | LEL (rat [6]; systemic / pathology microscopic / kidney / degeneration + systemic / in life observation / body weight / body weight + systemic / in life …): 20 mg/kg/day | LEL (dog [7]): 2.5 mg/kg/day | LOAEL (dog [7]): 2.5 mg/kg/day | NEL (dog [7]): 0.5 mg/kg/day | NOAEL (dog [7]): 0.5 mg/kg/day | LEL (rat [8]; [20]): 200 mg/kg/day | LOAEL (rat [8]; [20]): 200 mg/kg/day | NEL (rat [8]; [20]): 100 mg/kg/day | NOAEL (rat [8]; [20]): 100 mg/kg/day | LEL (rat [8]; [21]): 50 mg/kg/day | LOAEL (rat [8]; [21]): 50 mg/kg/day | NEL (rat [8]; [21]): < 50 mg/kg/day | NOAEL (rat [8]; [21]): < 50 mg/kg/day | NEL (mouse [9]; systemic / in life observation / body weight / body weight + systemic / urinalysis / protein / protein + systemic / urinalysis / specific …): 2.5 mg/kg/day | NOAEL (mouse [9]; systemic / organ weight / kidney / absolute + systemic / organ weight / pituitary gland / absolute): 12.5 mg/kg/day | LOAEL (mouse [9]; systemic / organ weight / kidney / absolute + systemic / organ weight / pituitary gland / absolute + systemic / in life observation / body …): 62.5 mg/kg/day | LEL (mouse [9]; systemic / urinalysis / protein / protein + systemic / clinical chemistry / urea nitrogen / urea nitrogen + systemic / pathology gross / …): 12.5 mg/kg/day
